Measured values from patent US5182387A, “Bis-dibenzoazepine compounds” (Merrell Dow Pharmaceuticals Inc., priority 1991, dated 1993).
Values after ≈ are worked out from the molar mass of the structure shown. Structures can show the parent of a compound that is named as a salt. Where two headings read alike, the source gives them in different places.

How the values were obtained:
[1] = tested on: multidrug resistant Plasmodium falciparum clone W-2; assay: antimalarial activity using multidrug resistant Plasmodium falciparum clone W-2; format: cell-based; conditions: read-out: IC50, ng/ml CLONE W-2
Description: (§1) Referring to Table 2, the antimalarial activity of compounds of formula 1 were tested using the multidrug resistant Plasmodium falciparum clone W-2. The methods for the growth of the malaria parasite, the testing of drugs for antimalarial effects and the clone are described in Science 242, 1301-1303 1988.

[2] = tested on: multidrug resistant Plasmodium falciparum clone W-2; assay: reversal of the chloroquine resistance in clone W-2; format: cell-based
Description: as §1

[3] = tested on: chloroquine-sensitive strain of Plasmodium falciparum (clone D6); assay: antimalarial activity against chloroquine-sensitive strain of Plasmodium falciparum (clone D6); format: cell-based
Description: As shown by Table 1, the compounds of the present invention have antimalarial activity on their own without other antimalarial agents. This antimalarial activity can be tested using a number of methods. For example, the compounds of formula 1 listed in Table 1 were tested for antimalarial activity against chloroquine-sensitive strain of Plasmodium falciparum (clone D6).
The methods for the growth of the malaria parasite, the testing of drugs for antimalarial effects and the clone are described in Science 242, 1301-1303 1988.

[4] = tested on: chloroquine-resistant Plasmodium falciparum; assay: synergistic effect with chloroquine, isobologram analysis; format: cell-based; conditions: chloroquine-resistant P. falciparum, data not shown
Description: Isobologram analysis was carried out according to the method of Martin, et al., (1987) Science 235, 899-901 and Berenbaum, (1978) Journal of Infectious Diseases 137, 122-130 (data not shown).

Plasmodium falciparum = conditions: as described in Science 242, 1301-1303 1988; cited from earlier work
[5] = 50% reversal of the chloroquine resistance in clone W-2, read-out: Conc. in ng/ml for 50% Reversal of chloroquine
[6] = D6, read-out: IC50, ng/ml CLONE D6
[7] = chloroquine-sensitive clone D6, read-out: IC50, ng/ml CLONE D6

Structure (SMILES) | IC50 [1] [ng/mL] | EC50 [2, 5] [ng/mL] | IC50 [3, 6] [ng/mL] | IC50 [3, 7] [ng/mL] | synergistic effect with antimalarial agents [4] | EC50 ([2]; read-out: Conc. in ng/ml for 50% Reversal of chloroquine) [ng/mL] | utility in reversing chloroquine resistance (Plasmodium falciparum)
CN(CCCCCN(C)CCCN1c2ccccc2CCc2ccccc21)CCCN1c2ccccc2CCc2ccccc21 [Example 5, N,N'-Bis[3-(10,11-dihydro-5H-dibenzo[b,f]azepino)propyl]-N,N'-dimethylpentanediamine Maleate] | 180 | 56 |  |  |  |  | 
c1ccc2c(c1)CCc1ccccc1N2CCCN1CCN(CCCN2c3ccccc3CCc3ccccc32)CC1 [Example 9, 1,4-Bis[3-(10,11-dihydro-5H-dibenzo[b,f]azepino)propyl]piperazine Maleate] | > 5000 | > 200 |  |  |  |  | 
CCN(CC)CCCC(C)Nc1ccnc2cc(Cl)ccc12 (centres unmarked) [chloroquine, reference compound] | 160 (≈ 0.5 µM) |  | 7 (≈ 0.0219 µM) |  |  |  | 
CN(CCCN1c2ccccc2CCc2ccccc21)CC(=O)N(C)CCCN1c2ccccc2CCc2ccccc21 [Example 1, N,N'-Bis[3-(10,11-dihydro-5H-dibenzo[b,f]azepino)propyl]-N,N'-dimethylacetamide Oxalate] | 3570 | > 200 |  |  |  |  | 
CN(CCCCN(C)CCCN1c2ccccc2CCc2ccccc21)CCCN1c2ccccc2CCc2ccccc21 [Example 4, N,N'-Bis[3-(10,11-dihydro-5H-dibenzo[b,f]azepino)propyl]-N,N'-dimethylbutanediamine Fumarate] | 56 | 14 |  | 240 | synergistic effect with chloroquine |  | 
CN(CCCCCCN(C)CCCN1c2ccccc2CCc2ccccc21)CCCN1c2ccccc2CCc2ccccc21 [Example 6, N,N'-Bis[3-(10,11-dihydro-5H-dibenzo[b,f]azepino)propyl]-N,N'-dimethylhexanediamine Fumarate] | 140 | 52 |  | 210 |  |  | 
c1ccc2c(c1)CCc1ccccc1N2CCCNCCCCNCCCN1c2ccccc2CCc2ccccc21 [Example 8, N,N'-Bis[3-(10,11-dihydro-5H-dibenzo[b,f]azepino)propyl]butanediamine Maleate] | 110 | 105 |  | 48 |  |  | 
CN(CCCN(C)CCCN1c2ccccc2CCc2ccccc21)CCCN1c2ccccc2CCc2ccccc21 [Example 3, N,N'-Bis[3-(10,11-dihydro-5H-dibenzo[b,f]azepino)propyl]-N,N'-dimethylpropanediamine Maleate] | 385 | 72 |  |  |  |  | 
CN(CCCN1c2ccccc2CCc2ccccc21)CCN(C)CCCN1c2ccccc2CCc2ccccc21 [Example 2, N,N'-Bis[3-(10,11-dihydro-5H-dibenzo[b,f]azepino)propyl]-N,N'-dimethylethanediamine Maleate] | 1510 | > 200 |  |  |  |  | 
CNCCCN1c2ccccc2CCc2ccccc21 [desipramine, reference compound] | 300 (≈ 1.13 µM) |  | 15000 (≈ 56.3 µM) |  |  | 35 | shown to have utility in reversing chloroquine resistance
